Results as given in US20250270206A1, “COMPOSITIONS AND METHODS FOR INHIBITION OF RAS” (TheRas, Inc., priority 2022, published 2025).

What was measured:
[1] = test system: pERK in NCI-H358 cells; assay: Cell-based pERK HTRF assay; conditions: Homo sapiens, 0.5 h, 30 min incubation
In short: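 KRAS G12C NCI-H358 cells in RPMI/10% FBS treated 30 min with compound, 9-point 3-fold series from 75 μM final top, 0.25% DMSO. Lysates read for phospho-ERK by HTRF (d2/Eu cryptate antibodies, 615 nm emission) after 4–24 h room-temperature incubation.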

[2] = biological target: T1, GDP-loaded KRAS4b (amino acids 1-169) G12C/C118S (Homo sapiens, UniProt P01116, C118S/G12C); assay: MALDI-TOF MS covalent Cys12 modification, GDP-loaded KRAS G12C; format: binding; conditions: 15 minutes reaction time, 1 μM protein, 1:2.5 protein to compound ratio
T1 construct: KRAS4b (amino acids 1-169) G12C/C118S protein; made in house
In short: (§1)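 1 μM KRAS4b(1-169) G12C/C118S loaded with GTP, GppNHp or GDP in 20 mM HEPES, 150 mM NaCl, 1 mM MgCl2, pH 7.3, treated at a 1:2.5 protein:compound ratio in the dark at room temperature. Linear-mode MALDI-TOF; percent modification = adduct peak height over total protein peak heights, at 15 min.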

[3] = biological target: T2, Avi-KRAS G12C (1-169) GppNHp/RAF1 RBD-3×FLAG (52-151) (Homo sapiens, UniProt P01116, G12C); assay: KRAS G12C-effector (RAF1 RBD) protein:protein interaction HTRF disruption assay; format: biochemical; conditions: PPI HTRF
T2 construct: Avi-KRAS G12C (1-169) GppNHp
In short: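 TR-FRET disruption read-out (excitation 320 nm, emission 615 nm), expressed relative to DMSO set at 100% activity, over a 3-fold compound series of 30-0.02 μM. Tris pH 7.5 buffer with 5 mM MgCl2, 0.1% BSA and 10% DMSO. GppNHp-bound KRAS G12C (50 nM), then RAF1 RBD (75 nM), then detection reagents, each incubated 1 h at RT.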

[4] = biological target: T3, GTP-loaded KRAS4b (amino acids 1-169) G12C/C118S (Homo sapiens, UniProt P01116, C118S/G12C); assay: MALDI-TOF MS covalent Cys12 modification, GTP-loaded KRAS G12C; format: binding; conditions: 15 minutes reaction time, 1 μM protein, 1:2.5 protein to compound ratio
T3 construct: KRAS4b (amino acids 1-169) G12C/C118S protein; made in house
In short: as §1

[5] = biological target: T4, GppNHp-loaded KRAS4b (amino acids 1-169) G12C/C118S (Homo sapiens, UniProt P01116, C118S/G12C); assay: MALDI-TOF MS covalent Cys12 modification, GppNHp-loaded KRAS G12C; format: binding; conditions: 15 minutes reaction time, 1 μM protein, 1:2.5 protein to compound ratio
T4 construct: KRAS4b (amino acids 1-169) G12C/C118S protein; made in house
In short: as §1

SMILES	IC50 [1]	GDP-KRAS G12C percent of modification [2]	IC50 [3]	GTP-KRAS G12C percent of modification [4]	GppNHp-KRAS G12C percent of modification [5]
C=CC(=O)N1CCC(N(C)c2nc(OC[C@@H]3C[C@@H](F)CN3C)nc3c(F)c(-c4ccc(F)c5sc(N)c(C#N)c45)ncc23)[C@H]1C (stereo partly drawn) [Compound 23]	100 to 1000 nM	A (percent of modification ≥70%)	≤ 500 nM	A (percent of modification ≥70%)	A (percent of modification ≥70%)
C=CC(=O)N1CCC(N(CC)c2nc(OC[C@@]34CCCN3C[C@H](F)C4)nc3c(F)c(-c4ccc(F)c5sc(N)c(C#N)c45)ncc23)[C@H]1COC (stereo partly drawn) [Compound 25]	100 to 1000 nM	A (percent of modification ≥70%)	≤ 500 nM	A (percent of modification ≥70%)	A (percent of modification ≥70%)
C=CC(=O)N1CCC(N(C)c2nc(OC[C@@H]3C[C@@H](F)CN3C)nc3c(F)c(-c4ccc(F)c5sc(N)c(C#N)c45)ncc23)[C@H]1COC (stereo partly drawn) [Compound 27]	100 to 1000 nM	A (percent of modification ≥70%)	≤ 500 nM	A (percent of modification ≥70%)	A (percent of modification ≥70%)
C=CC(=O)N1CCC(N(C)c2nc(OC[C@@H]3C[C@@H](OC)CN3C)nc3c(F)c(-c4ccc(F)c5sc(N)c(C#N)c45)ncc23)[C@H]1C (stereo partly drawn) [Compound 28]	100 to 1000 nM	A (percent of modification ≥70%)	≤ 500 nM	A (percent of modification ≥70%)	A (percent of modification ≥70%)
C=CC(=O)N1CCC(N(CC)c2nc(OC[C@@]34CCCN3C[C@H](F)C4)nc3c(Cl)c(-c4ccc(F)c5sc(N)c(C#N)c45)ncc23)[C@H]1COC (stereo partly drawn) [Compound 30]	100 to 1000 nM	A (percent of modification ≥70%)	≤ 500 nM	A (percent of modification ≥70%)	A (percent of modification ≥70%)
C=CC(=O)N1CCC(N(CC)c2nc(OC[C@@]34CCCN3C[C@H](F)C4)nc3c(Cl)c(-c4ccc(F)c5sc(N)c(C#N)c45)ncc23)[C@H]1C (stereo partly drawn) [Compound 37]	≤ 100 nM	A (percent of modification ≥70%)	≤ 500 nM	A (percent of modification ≥70%)	A (percent of modification ≥70%)
C=CC(=O)N1CCC(N(C)c2nc(OC[C@@]34CCCN3C[C@H](F)C4)nc3c(Cl)c(-c4ccc(F)c5sc(N)c(C#N)c45)ncc23)[C@H]1CC (stereo partly drawn) [Compound 38]	≤ 100 nM	A (percent of modification ≥70%)	≤ 500 nM	A (percent of modification ≥70%)	A (percent of modification ≥70%)
C=CC(=O)N1CCC(N(C)c2nc(OC[C@@]34CCCN3C[C@H](F)C4)nc3c(F)c(-c4ccc(F)c5sc(N)c(C#N)c45)ncc23)[C@H]1CC (stereo partly drawn) [Compound 39]	100 to 1000 nM	A (percent of modification ≥70%)	≤ 500 nM	A (percent of modification ≥70%)	A (percent of modification ≥70%)
C=CC(=O)N1CCC(N(CC)c2nc(OC[C@@]34CCCN3C[C@H](F)C4)nc3c(F)c(-c4ccc(F)c5sc(N)c(C#N)c45)ncc23)[C@H]1CC (stereo partly drawn) [Compound 40]	100 to 1000 nM	A (percent of modification ≥70%)	≤ 500 nM	A (percent of modification ≥70%)	A (percent of modification ≥70%)
